Patent US20210145801A1, “THERAPY FOR PROTEIN MISFOLDING DISEASE” (WREN THERAPEUTICS LIMITED, priority 2018, published 2021)
Like-named read-outs stand apart in the source and are kept apart here.

How the values were obtained:
Aβ42 fibrils = molecular target: T1, Aβ42 fibrils (Homo sapiens, UniProt P05067); assay: Dot blot assay with fibril-specific OC antibody; assay type: biochemical; details: 2 μM Aβ42; 5-fold excess of compound; eight time points
T1 construct: made in house; host or cells: E. coli BL21 Gold (DE3)
Description: Blotting was performed using Aβ42 fibril-specific antibody (OC, Millipore). During the time course of the aggregation of a 2 μM Aβ42 in the absence and in the presence of 5-fold excess of Netoglitazone, 4 μL Aβ42 aliquots were removed from the mixture at different time points for blotting with OC. Aβ42 aliquots were spotted onto a nitrocellulose membrane (0.2 μm, Whatman) and then the membranes were dried and then blocked with Blocking One (Nacalai tesque) before immuno-detection. OC was used according to the manufacturer's instructions. Alexa Fluor® 488-conjugated secondary antibodies (Life technologies) were subsequently added and fluorescence detection was performed using Typhoon Trio Imager (GE Healthcare).

Aβ42 oligomers = molecular target: T2, Aβ42 oligomers (Homo sapiens, UniProt P05067); assay: ELISA with oligomer-specific antibody; assay type: biochemical; details: 5 μM Aβ42; 5-fold excess; at half-time of Aβ42 alone
T2 construct: made in house; host or cells: E. coli BL21 Gold (DE3)
Description: 20 μl Aliquots were taken at the t50 (i.e. half-time) from aggregation reactions of 5 μM Aβ42 in the absence and in the presence of 5-fold excess of Netoglitazone. Samples were then immobilised on a 96-well Maxisorp ELISA plate (Nunc, Roskilde, Denmark) with no shaking for 1 h at room temperature. The plate was then washed three times with 20 mM Tris pH 7.4, 100 mM NaCl and incubated in 20 mM Tris pH 7.4, 100 mM NaCl, 5% BSA under constant shaking overnight at 4° C. The day after the plate was washed six times with 20 mM Tris pH 7.4, 100 mM NaCl and then incubated with 30 μl solutions of 5 μM oligomer-specific antibody under constant shaking either for 1 hour or overnight at room temperature. At the end of this incubation, the plate was washed six times with 20 mM Tris pH 7.4, 100 mM NaCl and incubated with 30 μl solutions of Rabbit polyclonal to 6× His Tag® HRP conjugated (Abcam, Cambridge, UK) at a dilution of 1:4000 in 20 mM Tris pH 7.4, 100 mM NaCl, 5% BSA under shaking for 1 hour at room temperature. […] Finally, the amount of bound oligomer-specific antibody was quantified by using 1-Step™ Ultra TMB-ELISA Substrate Solution (ThermoFisher Scientific, Waltham, Mass., United States), according to manufacturer instructions, and measuring the absorbance at 450 nm by means of a CLARIOstar plate reader (BMG Labtech, Aylesbury, UK).

control animals (N2) = assay: Maximum tolerable dose in control animals; set-up: species or system C. elegans; details: in vivo
Description: Briefly, Netoglitazone stocks (5 mM in 100% DMSO) were used at an appropriate concentration to seed 9-cm NGM plates. Plates were then placed in a laminar flow hood at room temperature (22° C.) for up to 4 hours to dry. C. elegans cultures were then transferred onto media seeded with compound as L4 stage or Day 3 for late treatments and incubated at 24° for the whole experiment. Experiments were carried out at different Netoglitazone concentrations ranging from 0.05 to 500 μM in 1% DMSO. As controls, plates seeded only with 1% DMSO were used.

[1] = Brain microdialysis time course study (striatum); assay type: in vivo, male C57BL/6 mice; details: 15 mg/kg po; for Netoglitazone (ng/ml) in microdialysate / Netoglitazone (ng/ml) corrected for recovery: striatum; for Netoglitazone (ng/ml) corrected for recovery: recovery 0.11; for concentration at 6 h: terminal sample shortly after 6 hours
Description: To further assess the free drug exposure in the CNS following dosing of Netoglitazone an in vivo surgical microdialysis time course study was performed. Microdialysis is a minimally-invasive sampling technique that is used for continuous measurement of free, unbound analyte concentrations in the extracellular fluid of virtually any tissue (e.g. ISF in the brain). The microdialysis technique requires the insertion of a small microdialysis catheter (also referred to as microdialysis probe) into the tissue of interest. The microdialysis probe is designed to mimic a blood capillary and consists of a shaft with a semipermeable hollow fiber membrane at its tip, which is connected to inlet and outlet tubing. The probe is continuously perfused with an aqueous solution (perfusate) that closely resembles the (ionic) composition of the surrounding tissue fluid at a low flow rate of approximately 0.1-5 μL/min. Once inserted into the tissue or (body)fluid of interest, small solutes can cross the semipermeable membrane by passive diffusion. The direction of the analyte flow is determined by the respective concentration gradient and allows the usage of microdialysis probes as sampling as well as delivery tools. The solution leaving the probe (dialysate) is collected at certain time intervals for analysis. It is widely recognised as the ‘gold standard’ technique for measuring free drug levels in the CNS. Briefly, 3 male C57BL/6 mice (18 weeks old) were surgically prepared with one cannula in the brain to allow for microdialysis sampling from the striatum. Animals were allowed one day to recover and then habituated to the microdialysis cages overnight. On the study day, a microdialysis probe was inserted through the implanted cannula. […] At the end of the experiment animals were anaesthetised and terminal blood and brain samples collected.

T1 sequence (P05067 671-713): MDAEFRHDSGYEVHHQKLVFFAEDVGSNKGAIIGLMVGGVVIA
T2 sequence (P05067 671-713): as above

O=C1NC(=O)C(Cc2ccc3cc(OCc4ccccc4F)ccc3c2)S1 (centres unmarked) [Netoglitazone]
Delay of Aβ42 fibril formation in dot-blot assay (Aβ42 fibrils): identical within experimental error to that observed in the ThT-based assay | Aβ42 oligomer concentration (ELISA) (Aβ42 oligomers): significant reduction in the Aβ42 oligomer concentration | Maximum tolerable dose in control animals (control animals (N2)): < 500 µM | Crossing of the blood-brain barrier after oral administration [1]: readily crosses the blood-brain barrier | First microdialysate fraction in which compound could be detected ([1]; post administration): 30 to 60 min | Netoglitazone (ng/ml) in microdialysate ([1]; 0-30 min after dose): <LLOQ | Netoglitazone (ng/ml) in microdialysate ([1]; 30-60 min after dose): 0.4 ng/mL | Netoglitazone (ng/ml) in microdialysate ([1]; 60-90 min after dose): 0.5 ng/mL | Netoglitazone (ng/ml) in microdialysate ([1]; 90-120 min after dose): 0.7 ng/mL | Netoglitazone (ng/ml) in microdialysate ([1]; 120-150 min after dose): 0.9 ng/mL | Netoglitazone (ng/ml) in microdialysate ([1]; 150-180 min after dose): 1.1 ng/mL | Netoglitazone (ng/ml) in microdialysate ([1]; 180-210 min after dose): 1.3 ng/mL | Netoglitazone (ng/ml) in microdialysate ([1]; 210-240 min after dose): 1.5 ng/mL | Netoglitazone (ng/ml) in microdialysate ([1]; 240-270 min after dose): 1.9 ng/mL | Netoglitazone (ng/ml) in microdialysate ([1]; 270-300 min after dose): 2.8 ng/mL | Netoglitazone (ng/ml) in microdialysate ([1]; 300-330 min after dose): 3.3 ng/mL | Netoglitazone (ng/ml) in microdialysate ([1]; 330-360 min after dose): 3.6 ng/mL | Netoglitazone (ng/ml) corrected for recovery ([1]; 0-30 min after dose): <LLOQ | Netoglitazone (ng/ml) corrected for recovery ([1]; 30-60 min after dose): 3.6 ng/mL | Netoglitazone (ng/ml) corrected for recovery ([1]; 60-90 min after dose): 4.5 ng/mL | Netoglitazone (ng/ml) corrected for recovery ([1]; 90-120 min after dose): 6.4 ng/mL | Netoglitazone (ng/ml) corrected for recovery ([1]; 120-150 min after dose): 8.2 ng/mL | Netoglitazone (ng/ml) corrected for recovery ([1]; 150-180 min after dose): 10.0 ng/mL | Netoglitazone (ng/ml) corrected for recovery ([1]; 180-210 min after dose): 11.8 ng/mL | Netoglitazone (ng/ml) corrected for recovery ([1]; 210-240 min after dose): 13.6 ng/mL | Netoglitazone (ng/ml) corrected for recovery ([1]; 240-270 min after dose): 17.3 ng/mL | Netoglitazone (ng/ml) corrected for recovery ([1]; 270-300 min after dose): 25.5 ng/mL | Netoglitazone (ng/ml) corrected for recovery ([1]; 300-330 min after dose): 30.0 ng/mL | Netoglitazone (ng/ml) corrected for recovery ([1]; 330-360 min after dose): 32.7 ng/mL | Kp at 6 h ([1]; male, C57BL/6, mouse, brain / plasma, terminal samples shortly after 6 hours, read-out: Brain:plasma ratio): 0.8 | concentration at 6 h ([1]; male, C57BL/6, mouse, plasma, read-out: Concentration in plasma): 13300 ng/mL | concentration at 6 h ([1]; male, C57BL/6, mouse, whole brain, read-out: Concentration in brain): 10300 ng/g
